Data from ChEMBL document CHEMBL2311520, “Total synthesis of AMF-26, an antitumor agent for inhibition of the Golgi system, targeting ADP-ribosylation factor 1” (J Med Chem, 2013).
Activity calls are given as the source filed them. The calls are words filed in the database; no cut-off is given here.

How the values were obtained:
[1] = system: HBC4; experiment: Induction of golgi disassembly in human HBC4 cells assessed as presence of GBF1 in cytoplasm at 1 to 100 nM after 1 hr by immunofluorescence microscopy; format: functional, cell-based
[2] = system: BSY-1; experiment: Induction of golgi disassembly in human BSY1 cells assessed as presence of GBF1 in cytoplasm at 1 to 100 nM after 1 hr by immunofluorescence microscopy; format: functional, cell-based
[3] = system: PC-3; experiment: Growth inhibition of human PC3 cells after 48 hrs by Sulforhodamine B assay; format: functional; conditions: PC-3, 48 h, read-out: pGI50 (converted)
[4] = system: DU-145; experiment: Growth inhibition of human DU145 cells after 48 hrs by Sulforhodamine B assay; format: functional; conditions: DU-145, 48 h, read-out: pGI50 (converted)
[5] = system: MKN-74; experiment: Growth inhibition of human MKN74 cells after 48 hrs by Sulforhodamine B assay; format: functional; conditions: MKN-74, 48 h, read-out: pGI50 (converted)
[6] = system: MKN-7; experiment: Growth inhibition of human MKN7 cells after 48 hrs by Sulforhodamine B assay; format: functional; conditions: MKN-7, 48 h, read-out: pGI50 (converted)
[7] = system: MKN-28; experiment: Growth inhibition of human MKN28 cells after 48 hrs by Sulforhodamine B assay; format: functional; conditions: MKN-28, 48 h, read-out: pGI50 (converted)
[8] = system: St-4; experiment: Growth inhibition of human St-4 cells after 48 hrs by Sulforhodamine B assay; format: functional; conditions: St-4, 48 h, read-out: pGI50 (converted)
[9] = Growth inhibition of human RXF631L cells after 48 hrs by Sulforhodamine B assay; format: functional; conditions: RXF 631, 48 h, read-out: pGI50 (converted)
[10] = system: ACHN; experiment: Growth inhibition of human ACHN cells after 48 hrs by Sulforhodamine B assay; format: functional; conditions: read-out: pGI50 (converted)
[11] = system: SK-OV-3; experiment: Growth inhibition of human SKOV3 cells after 48 hrs by Sulforhodamine B assay; format: functional; conditions: SK-OV-3, 48 h, read-out: pGI50 (converted)
[12] = system: OVCAR-3; experiment: Growth inhibition of human OVCAR3 cells after 48 hrs by Sulforhodamine B assay; format: functional; conditions: OVCAR-3, 48 h, read-out: pGI50 (converted)
[13] = system: OVCAR-5; experiment: Growth inhibition of human OVCAR5 cells after 48 hrs by Sulforhodamine B assay; format: functional; conditions: OVCAR-5, 48 h, read-out: pGI50 (converted)
[14] = system: LOX IMVI; experiment: Growth inhibition of human LOXIMVI cells after 48 hrs by Sulforhodamine B assay; format: functional
[15] = system: DMS-114; experiment: Growth inhibition of human DMS114 cells after 48 hrs by Sulforhodamine B assay; format: functional; conditions: DMS-114, 48 h, read-out: pGI50 (converted)
[16] = system: A549; experiment: Growth inhibition of human A549 cells after 48 hrs by Sulforhodamine B assay; format: functional; conditions: A549, 48 h, read-out: pGI50 (converted)
[17] = system: DMS-273; experiment: Growth inhibition of human DMS273 cells after 48 hrs by Sulforhodamine B assay; format: functional; conditions: DMS-273, 48 h, read-out: pGI50 (converted)
[18] = system: NCI-H460; experiment: Growth inhibition of human NCI-H460 cells after 48 hrs by Sulforhodamine B assay; format: functional; conditions: NCI-H460, 48 h, read-out: pGI50 (converted)
[19] = system: NCI-H522; experiment: Growth inhibition of human NCI-H522 cells after 48 hrs by Sulforhodamine B assay; format: functional; conditions: NCI-H522, 48 h, read-out: pGI50 (converted)
[20] = system: NCI-H23; experiment: Growth inhibition of human NCI-H23 cells after 48 hrs by Sulforhodamine B assay; format: functional; conditions: NCI-H23, 48 h, read-out: pGI50 (converted)
[21] = system: HCT-116; experiment: Growth inhibition of human HCT116 cells after 48 hrs by Sulforhodamine B assay; format: functional; conditions: HCT-116, 48 h, read-out: pGI50 (converted)
[22] = system: HCT-15; experiment: Growth inhibition of human HCT15 cells after 48 hrs by Sulforhodamine B assay; format: functional; conditions: HCT-15, 48 h, read-out: pGI50 (converted)
[23] = system: SNB-78; experiment: Growth inhibition of human SNB-78 cells after 48 hrs by Sulforhodamine B assay; format: functional; conditions: SNB-78, 48 h, read-out: pGI50 (converted)
[24] = Growth inhibition of human HCC2998 cells after 48 hrs by Sulforhodamine B assay; format: functional; conditions: HCC 2998, 48 h, read-out: pGI50 (converted)
[25] = system: SF-539; experiment: Growth inhibition of human SF539 cells after 48 hrs by Sulforhodamine B assay; format: functional; conditions: SF-539, 48 h, read-out: pGI50 (converted)
[26] = system: SF-295; experiment: Growth inhibition of human SF295 cells after 48 hrs by Sulforhodamine B assay; format: functional; conditions: SF-295, 48 h, read-out: pGI50 (converted)
[27] = system: U-251; experiment: Growth inhibition of human U251 cells after 48 hrs by Sulforhodamine B assay; format: functional; conditions: U-251, 48 h, read-out: pGI50 (converted)
[28] = system: SF-268; experiment: Growth inhibition of human SF268 cells after 48 hrs by Sulforhodamine B assay; format: functional; conditions: SF-268, 48 h, read-out: pGI50 (converted)
[29] = system: MCF7; experiment: Growth inhibition of human MCF7 cells after 48 hrs by Sulforhodamine B assay; format: functional; conditions: MCF7, 48 h, read-out: pGI50 (converted)
[30] = Growth inhibition of human HBC5 cells after 48 hrs by Sulforhodamine B assay; format: functional; conditions: HBC5, 48 h, read-out: pGI50 (converted)
[31] = Growth inhibition of human HBC4 cells after 48 hrs by Sulforhodamine B assay; format: functional; conditions: Homo sapiens, HBC4, 48 h; read-out: logGI50 (converted)
[32] = system: MKN-45; experiment: Growth inhibition of human MKN45 cells after 48 hrs by Sulforhodamine B assay; format: functional; conditions: MKN-45, 48 h
[33] = Growth inhibition of human MKN1 cells after 48 hrs by Sulforhodamine B assay; format: functional; conditions: MKN-1, 48 h
[34] = system: OVCAR-4; experiment: Growth inhibition of human OVCAR4 cells after 48 hrs by Sulforhodamine B assay; format: functional; conditions: OVCAR-4, 48 h
[35] = system: OVCAR-8; experiment: Growth inhibition of human OVCAR8 cells after 48 hrs by Sulforhodamine B assay; format: functional; conditions: OVCAR-8, 48 h
[36] = system: NCI-H226; experiment: Growth inhibition of human NCI-H226 cells after 48 hrs by Sulforhodamine B assay; format: functional; conditions: NCI-H226, 48 h
[37] = system: KM12; experiment: Growth inhibition of human KM12 cells after 48 hrs by Sulforhodamine B assay; format: functional; conditions: KM12, 48 h
[38] = system: HT-29; experiment: Growth inhibition of human HT-29 cells after 48 hrs by Sulforhodamine B assay; format: functional; conditions: HT-29, 48 h
[39] = system: SNB-75; experiment: Growth inhibition of human SNB75 cells after 48 hrs by Sulforhodamine B assay; format: functional; conditions: SNB-75, 48 h
[40] = system: MDA-MB-231; experiment: Growth inhibition of human MDA-MB-231 cells after 48 hrs by Sulforhodamine B assay; format: functional; conditions: MDA-MB-231, 48 h
[41] = Growth inhibition of human BSY1 cells after 48 hrs by Sulforhodamine B assay; format: functional; conditions: BSY-1, 48 h

SMILES: C/C(=C\C=C\[C@@H]1[C@H]2[C@H](C)[C@@H](O)[C@H](C)C[C@@H]2C=C[C@@H]1C)C(=O)NCc1cccnc1 (stereo in doubt; form 2) [listing 1 of 2 here]
- Activity [1]: Active
- Activity [2]: Active

SMILES: C/C(=C\C=C\[C@@H]1[C@H]2[C@H](C)[C@@H](O)[C@H](C)C[C@@H]2C=C[C@@H]1C)C(=O)NCc1cccnc1 (stereo in doubt; form 2) [listing 2 of 2 here]
- GI50 [3]: 46.8 nM
- GI50 [4]: 219 nM
- GI50 [5]: 81.3 nM
- GI50 [6]: 66.1 nM
- GI50 [7]: 83.2 nM
- GI50 [8]: 214 nM
- GI50 [9]: 112 nM
- GI50 [10]: 81.3 nM
- GI50 [11]: 44.7 nM
- GI50 [12]: 46.8 nM
- GI50 [13]: 41.7 nM
- GI50 ([14]; read-out: GI50): 33.1 nM
- GI50 ([14]; read-out: pGI50 (converted)): 33.1 nM
- GI50 [15]: 52.5 nM
- GI50 [16]: 51.3 nM
- GI50 [17]: 79.4 nM
- GI50 [18]: 174 nM
- GI50 [19]: 191 nM
- GI50 [20]: 60.3 nM
- GI50 [21]: 74.1 nM
- GI50 [22]: 126 nM
- GI50 [23]: 58.9 nM
- GI50 [24]: 47.9 nM
- GI50 [25]: 58.9 nM
- GI50 [26]: 100 nM
- GI50 [27]: 70.8 nM
- GI50 [28]: 51.3 nM
- GI50 [29]: 47.9 nM
- GI50 [30]: 41.7 nM
- GI50 [31]: 46.8 nM
- GI50 ([32]; read-out: GI50): 27.5 nM
- GI50 ([32]; read-out: pGI50 (converted)): 27.5 nM
- GI50 ([33]; read-out: GI50): 36.3 nM
- GI50 ([33]; read-out: pGI50 (converted)): 36.3 nM
- GI50 ([34]; read-out: GI50): 34.7 nM
- GI50 ([34]; read-out: pGI50 (converted)): 34.7 nM
- GI50 ([35]; read-out: GI50): 37.2 nM
- GI50 ([35]; read-out: pGI50 (converted)): 37.1 nM
- GI50 ([36]; read-out: GI50): 30.9 nM
- GI50 ([36]; read-out: pGI50 (converted)): 30.9 nM
- GI50 ([37]; read-out: GI50): 35.5 nM
- GI50 ([37]; read-out: pGI50 (converted)): 35.5 nM
- GI50 ([38]; read-out: GI50): 33.9 nM
- GI50 ([38]; read-out: pGI50 (converted)): 33.9 nM
- GI50 ([39]; read-out: GI50): 30.2 nM
- GI50 ([39]; read-out: pGI50 (converted)): 30.2 nM
- GI50 ([40]; read-out: GI50): 22.9 nM
- GI50 ([40]; read-out: pGI50 (converted)): 22.9 nM
- GI50 ([41]; read-out: GI50): 18.2 nM
- GI50 ([41]; read-out: pGI50 (converted)): 18.2 nM
